Measured values published in patent US7741281B2, “Hepatitis C virus inhibitors” (Bristol-Myers Squibb Company, priority 2005, dated 2010).

What was measured:
human liver cathepsin B = target: T1, human liver cathepsin B (Homo sapiens, UniProt P07858); assay: Specificity assay, cathepsin B (AMC substrate); assay type: biochemical; settings: read-out: Cathepsin B activity in the specificity assays (IC50)
T1 construct: purchased Sigma or EMDbiosciences; host or cells: human liver (as named)
Experimental: The specificities of compounds of the present disclosure were determined against a variety of serine proteases: human neutrophil elastase (HNE), porcine pancreatic elastase (PPE) and human pancreatic chymotrypsin and one cysteine protease: human liver cathepsin B. In all cases, a 96-well plate format protocol using colorimetric p-nitroaniline (pNA) substrate or fluorometric Amino-Methyl-Coumarin (AMC) substrate, specific for each enzyme was used as described previously (PCT Patent Application No. WO 00/09543) with some modifications. All enzymes were purchased from Sigma or EMDbiosciences while the substrates were from Bachem.
Each pNA assay included a 2 h enzyme-inhibitor pre-incubation at room temperature followed by addition of substrate and hydrolysis to ˜15% conversion as measured on a Spectramax Pro microplate reader. The cathepsin B assay was initiated by adding substrate to a 10 min enzyme-inhibitor pre-incubation at room temperature, and the assay plate measured immediately using the Cytofluor Series 4000. Compound concentrations varied from 100 to 0.4 μM depending on their potency.
The final conditions for each assay were as follows: […]
The percentage of inhibition was calculated using the formula: [1−((UVinh−UVblank)/(UVctl−UVblank))]×100 […]

[1] = test system: HCV replicon (Renilla luciferase) in HUH-7 cells; assay: HCV replicon luciferase reporter assay; assay type: cell-based, HCV strain 1b; settings: Huh-7, 96 h, 4 days
Description: An HCV replicon whole cell system was established as described by Lohmann V, Korner F, Koch J, Herian U, Theilmann L, Bartenschlager R., Science 285(5424):110-3 (1999). This system enabled us to evaluate the effects of our HCV Protease compounds on HCV RNA replication. Briefly, using the HCV strain 1b sequence described in the Lohmann paper (Assession number: AJ238799), an HCV cDNA was synthesized by Operon Technologies, Inc. (Alameda, Calif.), and the full-length replicon was then assembled in plasmid pGem9zf(+) (Promega, Madison, Wis.) using standard molecular biology techniques. […]
As a secondary assay, EC50 determinations from the replicon FRET assay were confirmed in a replicon luciferase reporter assay. […] Following 4 days in a 37° C./5% CO2 incubator, cells were analyzed for Renilla Luciferase activity using the Promega Dual-Glo Luciferase Assay System. […] Plates were read on a Packard TopCount NXT using a luminescence program.
The percentage inhibition was calculated using the formula below: % control=average luciferase signal in experimental wells (+compound)
average luciferase signal in DMSO control wells (−compound) The values were graphed and analyzed using XLfit to obtain the EC50 value.

COc1c(O[C@@H]2C[C@H]3C(=O)N[C@]4(C(=O)NS(=O)(=O)C5CC5)C[C@H]4/C=C\CCCCC[C@H](NC(=O)OC(C)(C)C)C(=O)N3C2)ccc2c(Cl)nccc12 [Compound 3] was tested, and the IC50 (human liver cathepsin B) was 100 µM and the EC50 [1] was 0.0055 µM.
